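Protocol summary: plate cells (96-well), add compound at 5 concentrations, incubate 48 h, interpolate endpoints linearly. Here, GI50 denotes the concentration required for 50% inhibition of growth.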 Active and inactive are the calls of the source. Rule as the data show it: active = GI50 up to about 1.1 µM and inactive = higher.
Key:
Assay in all cases: NCI anticancer screen, dose series, 48 h
[1] = system: ACHN
[2] = system: CAKI-1
[3] = system: HCT-116
[4] = system: HL-60
[5] = system: Hs-578T
[6] = system: K562
[7] = system: LOX IMVI
[8] = system: MDA-N
[9] = system: MOLT-4
[10] = system: OVCAR-3
[11] = system: SF-268
[12] = system: SF-539
[13] = system: SK-MEL-5
[14] = system: SK-OV-3
[15] = system: SNB-19
[16] = system: SR
[17] = system: SW-620
[18] = system: TK-10
[19] = system: U-251

| Structure (SMILES) | GI50 [1] | GI50 [2] | GI50 [3] | GI50 [4] | GI50 [5] | GI50 [6] | GI50 [7] | GI50 [8] | GI50 [9] | GI50 [10] | GI50 [11] | GI50 [12] | GI50 [13] | GI50 [14] | GI50 [15] | GI50 [16] | GI50 [17] | GI50 [18] | GI50 [19] |
| --- | --- | --- | --- | --- | --- | --- | --- | --- | --- | --- | --- | --- | --- | --- | --- | --- | --- | --- | --- |
| C/C(=N\NC(=S)N/N=C(\C)c1ccccn1)c1ccccn1 | 1.27 µM (inactive) | 1.41 µM (inactive) | 1.84 µM (inactive) | > 100 µM (inactive) | 31.8 µM (inactive) | 1.92 µM (inactive) | 0.859 µM (active) | 5.4 µM (inactive) | 1.31 µM (inactive) | 0.656 µM (active) | 0.817 µM (active) | 0.979 µM (active) | 4.61 µM (inactive) | 1.31 µM (inactive) | 3.56 µM (inactive) | 2.18 µM (inactive) | 1.75 µM (inactive) | > 100 µM (inactive) | 0.771 µM (active) |
| CCC(O)CC1OC2(CCC1C)CC1OC(=O)/C=C\C(C)(O)C(O)C(C)C(O)C(OC3CC(OC)C(O)C(C)O3)C(O)C(C)(O)CCC/C=C/C3CC(C)COC3(O)CC(O2)C1C (stereo unspecified) | 7.24 µM (inactive) | 1.24 µM (inactive) | 5.08 µM (inactive) | < 0.0199 µM (active) | 12.1 µM (inactive) | < 0.01 µM (active) | 11.8 µM (inactive) | 2.05 µM (inactive) | 0.335 µM (active) | 0.585 µM (active) | 17.8 µM (inactive) | 17.3 µM (inactive) | < 0.01 µM (active) | 26.6 µM (inactive) | 0.0743 µM (active) | 19.9 µM (inactive) | 14.8 µM (inactive) | 1.6 µM (inactive) | < 0.01 µM (active) |
| CCOC(=O)c1c(N2CCCC2)[nH]c(=O)c(C(c2ccco2)c2c(O)c(C(=O)OCC)c(N3CCCC3)[nH]c2=O)c1O | 95.5 µM (inactive) | > 100 µM (inactive) | > 100 µM (inactive) | > 100 µM (inactive) | 27.9 µM (inactive) | > 100 µM (inactive) | 37.4 µM (inactive) | > 100 µM (inactive) | > 100 µM (inactive) | > 100 µM (inactive) | 85.3 µM (inactive) | > 100 µM (inactive) | 82.6 µM (inactive) | > 100 µM (inactive) | 38.7 µM (inactive) | > 100 µM (inactive) | > 100 µM (inactive) | > 100 µM (inactive) | 73.8 µM (inactive) |
| CC(C)(Cc1ccccc1)NC1=NCCO1 | > 100 µM (inactive) | > 100 µM (inactive) | > 100 µM (inactive) | > 100 µM (inactive) | 76.4 µM (inactive) | > 100 µM (inactive) | > 100 µM (inactive) | > 100 µM (inactive) | > 100 µM (inactive) | > 100 µM (inactive) |  | > 100 µM (inactive) | > 100 µM (inactive) | > 100 µM (inactive) | > 100 µM (inactive) | > 100 µM (inactive) | > 100 µM (inactive) | > 100 µM (inactive) | > 100 µM (inactive) |
| C=CCNC(=S)N/C=C(\C#N)C(N)=O | > 100 µM (inactive) | > 100 µM (inactive) | > 100 µM (inactive) | > 100 µM (inactive) | > 100 µM (inactive) | > 100 µM (inactive) | > 100 µM (inactive) | > 100 µM (inactive) | > 100 µM (inactive) | > 100 µM (inactive) | > 100 µM (inactive) | > 100 µM (inactive) | > 100 µM (inactive) | > 100 µM (inactive) | > 100 µM (inactive) | > 100 µM (inactive) | > 100 µM (inactive) |  | > 100 µM (inactive) |
| Cc1cc2nc3c(C#N)c4c(c(-c5ccc(Cl)cc5)n3c2cc1C)CCC4 | 24.2 µM (inactive) | 19.4 µM (inactive) | 18.7 µM (inactive) | 21.4 µM (inactive) | 25.1 µM (inactive) | 23.1 µM (inactive) | 30.2 µM (inactive) | 28.8 µM (inactive) | 25.1 µM (inactive) | 20.3 µM (inactive) | 24.3 µM (inactive) | 29.2 µM (inactive) | 19.6 µM (inactive) | 18.2 µM (inactive) | 20.8 µM (inactive) | 23.8 µM (inactive) | 30.4 µM (inactive) | 22.1 µM (inactive) | 28.8 µM (inactive) |
| Cc1occc1C(=S)Nc1ccc(Cl)c(/C=N/OC(C)C)c1 | 21.2 µM (inactive) | 17.3 µM (inactive) | 20.4 µM (inactive) | 26.7 µM (inactive) | 26.7 µM (inactive) | 29.7 µM (inactive) | 16 µM (inactive) | 20.8 µM (inactive) | 20.8 µM (inactive) | 15.6 µM (inactive) | 28.1 µM (inactive) | 16.7 µM (inactive) | 19.9 µM (inactive) | 24.3 µM (inactive) | 27.1 µM (inactive) | 21.1 µM (inactive) | 20.9 µM (inactive) | 25.5 µM (inactive) | 19.5 µM (inactive) |
| CN(CCCNC(=O)c1cn(C)c2c1Cc1ccccc1-2)CCCNC(=O)c1cn(C)c2c1Cc1ccccc1-2 | 10.5 µM (inactive) | 14.9 µM (inactive) | 9.33 µM (inactive) | 13.3 µM (inactive) | 5.85 µM (inactive) | 2.78 µM (inactive) | 6.82 µM (inactive) | 3.58 µM (inactive) | 3.35 µM (inactive) | 15.6 µM (inactive) | 5.14 µM (inactive) | 13.8 µM (inactive) | 14.2 µM (inactive) | 16.5 µM (inactive) | 11.4 µM (inactive) | 1.45 µM (inactive) | 3.66 µM (inactive) | 11.6 µM (inactive) | 7.43 µM (inactive) |
| COC(=O)/N=[N+](\[O-])C(c1ccc(Cl)cc1)c1ccc(Cl)cc1 |  | 10.1 µM (inactive) | 23.8 µM (inactive) | 20.7 µM (inactive) | 36.4 µM (inactive) | 49.1 µM (inactive) | 15.7 µM (inactive) | 47.5 µM (inactive) | 39.7 µM (inactive) | 57.7 µM (inactive) | 69.5 µM (inactive) | 65.3 µM (inactive) | 24.7 µM (inactive) | 83.6 µM (inactive) | 50.4 µM (inactive) | 42 µM (inactive) | 48.6 µM (inactive) | 36.1 µM (inactive) | 39.2 µM (inactive) |
| c1ccc(SCCc2ccncc2)cc1 | > 100 µM (inactive) | 53 µM (inactive) | > 100 µM (inactive) | 50.6 µM (inactive) | > 100 µM (inactive) | 49.5 µM (inactive) | > 100 µM (inactive) | > 100 µM (inactive) | 17.7 µM (inactive) | 40.6 µM (inactive) | > 100 µM (inactive) | > 100 µM (inactive) | 35.8 µM (inactive) | > 100 µM (inactive) | > 100 µM (inactive) | 19.3 µM (inactive) | > 100 µM (inactive) | > 100 µM (inactive) | > 100 µM (inactive) |
| N#Cc1c(N2CCCC2)nsc1Nc1ccc(F)cc1 | > 100 µM (inactive) | 97.1 µM (inactive) | > 100 µM (inactive) | > 100 µM (inactive) | > 100 µM (inactive) | > 100 µM (inactive) | > 100 µM (inactive) | > 100 µM (inactive) | > 100 µM (inactive) | > 100 µM (inactive) | > 100 µM (inactive) | > 100 µM (inactive) | > 100 µM (inactive) | 61.2 µM (inactive) | > 100 µM (inactive) | > 100 µM (inactive) | > 100 µM (inactive) | > 100 µM (inactive) | > 100 µM (inactive) |
| COc1cc(-c2[o+]c3cc(O)cc(OC4OC(CO)C(O)C(O)C4O)c3cc2OC2OC(CO)C(O)C(O)C2O)cc(OC)c1O (stereo unspecified) | > 100 µM (inactive) | > 100 µM (inactive) | > 100 µM (inactive) | 21.1 µM (inactive) | > 100 µM (inactive) | > 100 µM (inactive) | > 100 µM (inactive) | > 100 µM (inactive) | > 100 µM (inactive) | > 100 µM (inactive) | > 100 µM (inactive) | > 100 µM (inactive) | > 100 µM (inactive) | > 100 µM (inactive) | > 100 µM (inactive) | > 100 µM (inactive) | > 100 µM (inactive) | > 100 µM (inactive) | > 100 µM (inactive) |
| C1=C(CC2=C[P+](c3ccccc3)(c3ccccc3)C=C(c3ccccc3)O2)OC(c2ccccc2)=C[P+]1(c1ccccc1)c1ccccc1 | 0.644 µM (active) | 2.21 µM (inactive) | 0.332 µM (active) | 0.188 µM (active) | 0.241 µM (active) |  | 0.431 µM (active) | 0.337 µM (active) | 0.489 µM (active) | 0.32 µM (active) | 0.362 µM (active) | 0.362 µM (active) | 0.293 µM (active) | 0.367 µM (active) | 0.328 µM (active) | 0.26 µM (active) | 0.367 µM (active) | 0.475 µM (active) | 0.269 µM (active) |
| FC(F)(F)c1ccc2c(c1)nc(-c1ccc(Cl)cc1)n2CC1CCCN2CCCCC12 (stereo unspecified) | 14.8 µM (inactive) | 17.1 µM (inactive) | 14.3 µM (inactive) | 11.8 µM (inactive) | 14 µM (inactive) |  | 14.3 µM (inactive) | 15.7 µM (inactive) | 0.233 µM (active) | 18.4 µM (inactive) | 14 µM (inactive) | 14.8 µM (inactive) | 14 µM (inactive) | 6.7 µM (inactive) | 17.1 µM (inactive) | 11.9 µM (inactive) | 18.5 µM (inactive) | 14.9 µM (inactive) | 14.2 µM (inactive) |
